These results are taken from patent US10077288B2, “Hydroxystatin derivatives for the treatment of arthrosis” (Merck Patent GmbH, priority 2012, dated 2018).

*1 amine or outer side, *2 acyl side, *3 side chain or, on linkers, in order; H or OH if unused. Where a SMILES comes first, the peptide text is derived from it. [ ]: non-standard residue; d: D form. The star is where a group is joined. Ahppa(3S,4S) = O=C(C[C@H](O)[C@H](Cc1ccccc1)N[*:1])[*:2]; Sta = CC(C)C[C@H](N)[C@@H](O)CC(=O)O; Isovaleryl = CC(C)CC(=O)*

Test [1] deals with bovine explants (cartilage degradation, liberation of GAG). The test is described as follows: Cartilage explant assay: pH-induced cartilage degradation, GAG release. Type of test: cell-based. Particulars: Bos taurus, 72 h, pH 5.5, 3 days. The source says:
EXAMPLE 5: CARTILAGE EXPLANT ASSAY
In order to investigate the effect of potential cathepsin D inhibitors on cartilage degradation, a pH-induced model based on bovine explants is used. The pH of the medium in which the explants are cultivated is matched here to the pathophysiological pH of an arthrotic knee. This pH is pH 5.5. In this ex vivo model, potential cathepsin D inhibitors are subsequently investigated for their action with respect to stopping of the cartilage degradation process. If the cartilage is destroyed, glycosaminoglycans (GAGs) are released into the cell culture supernatant. The amount of GAGs liberated can be determined quantitatively with the aid of DMMB (dimethylmethylene blue hydrochloride). If sulfated GAGs are detected using dimethylmethylene blue hydrochloride, the decrease in the absorption at 633 nm is utilised. […] In order to determine the concentration, a calibration line is also recorded using chondroitin sulfate.
1.) Procedure: pH-Induced Cartilage Degradation of Bovine Explants
The bovine explants are firstly prepared. The induction of the cartilage degradation is carried out in 96-multiwell plates. One explant is cultivated per well. In each case, 200 μl of DMEM (incubation medium pH 5.5) without FBS+30 μg/ml of ascorbic acid are added. Thus negative control, explants (n=4) are incubated at pH 7.4 (without FBS). This control is not included in the calculation of the data, but instead ensures that the pH change has the desired effect on the liberation of GAG. At this point, the substances to be tested are added. No pre-incubation of the explants is carried out. The explants are cultivated with the corresponding substances for 3 days in the incubator at 37° C. and 7.5% CO2.
In order to investigate the effect of cathepsin D inhibitors on the liberation of GAG (glycosaminoglycan), the substances are employed in the desired concentration and cultivated for 3 days. The compounds to be tested are tested in a first experiment in a concentration of 1 μM and 1% of DMSO. Substances which have an effect of >50% on the liberation of GAG (this corresponds to <50% of the control in the Assay Explorer) are tested in the next experiment at 100 nM and 1% of DMSO. Substances which have an effect of >50% on the liberation of GAG under these conditions (this corresponds to <50% of the control in the Assay Explorer) are tested in a concentration/effect relationship. The compounds here are investigated in the following concentrations: 30 μM, 10 μM, 3 μM, 1 μM, 0.3 μM, 0.1 μM, 0.03 μM, 0.01 μM.
The positive control used is pepstatin A with a concentration of 0.01 μM. The assay window is defined by the control (pH 5.5), defined as 0% effect, and the control pH 5.5+0.01 μM pepstatin A, defined as 100% effect. After incubation for 3 days, the cell culture supernatants are collected and stored at −20° C. or measured directly. The amount of liberated GAG is measured photometrically.
The effect (1 value) of the respective substance in % based on the positive control (pH 5.5+0.01 μM pepstatin A) and the negative control (pH 5.5) is reported for concentrations of 1 μM and 100 nM. The value represents the average of 4 replicants. In the determination of a concentration/effect relationship, an IC50 value is reported to the database (Assay Explorer).
The cell culture supernatants (200 μl) are either measured directly or stored at −20° C. […] A rapid colour reaction occurs, which is subsequently measured at 633 nm using a plate reader (for example Envision). […]

Test [2] deals with T1, cathepsin D isolated from the human liver (Homo sapiens, UniProt P07339).
T1 construct: cathepsin D isolated from the human liver (Sigma-Aldrich); purchased Sigma-Aldrich; host or cells: human liver (tissue-derived, not recombinant)
T1 sequence (P07339 65-161 limits assumed): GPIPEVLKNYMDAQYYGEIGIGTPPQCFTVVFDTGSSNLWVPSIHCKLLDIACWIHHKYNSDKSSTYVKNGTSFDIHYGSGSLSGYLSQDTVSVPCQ
T1 sequence (P07339 169-412 limits assumed): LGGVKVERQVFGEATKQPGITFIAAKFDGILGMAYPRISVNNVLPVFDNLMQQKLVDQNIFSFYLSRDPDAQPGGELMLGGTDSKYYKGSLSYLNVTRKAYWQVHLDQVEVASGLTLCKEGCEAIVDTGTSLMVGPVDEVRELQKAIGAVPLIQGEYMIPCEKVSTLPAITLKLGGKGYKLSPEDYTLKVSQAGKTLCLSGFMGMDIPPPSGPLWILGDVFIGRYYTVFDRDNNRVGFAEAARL
The test is described as follows: In-vitro fluorescence assay for identification of cathepsin D inhibitors. Type of test: biochemical. Conditions: human liver cathepsin D 1.4 nM, pH 5.5; read-out: CatD assay IC50-(M). In a few lines: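 Continuous FRET assay: human liver cathepsin D (1.4 nM final) preincubated 10 min at room temperature with serially diluted compound in 100 mM sodium acetate, 1.25% DMSO, 0.25% Chaps, pH 5.5. Started with 5 μM MCA-GKPILFFRLK(Dnp)d-R-NH2; fluorescence increase (ex 340/em 450 nm) over 60 min at room temperature compared with no-compound control.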

Test [3] relates to rat knee joint inflammation (CAR-induced). Description: Anti-hyperalgesic effect in animals: carrageenan-induced knee joint inflammation, Hargreaves test and swelling. The format is in vivo. Conditions: intra-articular administration 30 minutes before CAR; for CAR-induced swelling: rat knee joint. Here is the method:
EXAMPLE 6: INVESTIGATION OF THE ANTI-HYPERALGESIC EFFECT IN ANIMALS
In order to induce an inflammation reaction, a carrageenan solution […]) was injected intra-articularly on one side into a rat knee joint. The uninjected side was used for control purposes. Six animals per group were used. The […] was determined by means of a micrometer screw (medial-lateral on the knee joint), and the thermal hyperalgesia was determined by means of a directed infrared light source by the Hargreaves method (Hargreaves et al., 1988) on the sole of the foot. Since the site of inflammation (knee joint) is different from the site of measurement (paw sole), use is made here of the term secondary thermal hyperalgesia, the mechanism of which is of importance for the discovery of effective analgesics.
Experimental description of thermal hyperalgesia (Hargreaves test): the experimental animal is placed in a plastic chamber on a quartz sheet. Before testing, the experimental animal is firstly given about 5-15 minutes time to familiarise itself with the environment. As soon as the experimental animal no longer moves so frequently after the familiarisation phase (end of the exploration phase), the infrared light source, whose focus is in the plane of the glass bottom, is positioned directly beneath the rear paw to be stimulated. An experiment run is then started by pressing the button: infrared light results in an increase in the skin temperature of the rear paw. The experiment is terminated either by the experimental animal raising the rear paw (as an expression of the pain threshold being reached) or by automatic switching-off of the infrared light source when a prespecified maximum temperature has been reached. Light reflected by the paw is recorded as long as the experimental animal sits still. Withdrawal of the paw interrupts this reflection, after which the infrared light source is switched off and the time from switching on to switching off is recorded. […]

The test system of test [4] is bovine explants (cartilage degradation, liberation of GAG). Conditions: pH 5.5, explant cultures (for example from mouse, cow or human); background statement; cited from earlier work.

On to `CC[C@H](C)[C@H](NC(=O)C[C@H](O)[C@H](Cc1ccccc1)NC(=O)[C@@H](NC(=O)[C@H](CC(C)C)NC(=O)CC(C)C)C(C)C)C(=O)N[C@H](C(=O)O)C(C)C` [Compound 8, (S)-2-[(2S,3S)-2-((3S,4S)-3-hydroxy-4-{(S)-3-methyl-2-[(S)-4-methyl-2-(3-methylbutyrylamino)pentanoylamino]butyrylamino}-5-phenylpentanoylamino)-3-methylpentanoylamino]-3-methylbutyric acid] (Isovaleryl-LV[Ahppa(3S,4S)]IV-OH), for which the results for the IC50 in test [1] and in test [2] were 2.76 nM and 3e-09 M, respectively. The matching figures for `CC[C@H](C)[C@H](NC(=O)C[C@H](O)[C@H](Cc1ccccc1)NC(=O)[C@H](NC(=O)[C@H](CC(C)C)NC(=O)CC(C)C)C(C)C)C(=O)N[C@H](C(=O)O)C(C)C` [Compound 9, (S)-2-[(2S,3S)-2-((3S,4S)-3-hydroxy-4-{(R)-3-methyl-2-[(S)-4-methyl-2-(3-methylbutyrylamino)pentanoylamino]butyrylamino}-5-phenylpentanoylamino)-3-methylpentanoylamino]-3-methylbutyric acid] (Isovaleryl-L[dV][Ahppa(3S,4S)]IV-OH): 31.2 nM and 7.51e-08 M.

As for `CC[C@H](C)[C@H](NC(=O)C[C@H](O)[C@H](Cc1ccccc1)NC(=O)[C@@H](NC(=O)c1cccc(-c2ccccc2)c1)C(C)C)C(=O)N[C@H](C(=O)OCc1ccccc1)C(C)C` [Compound 23, benzly (S)-2-[(2S,3S)-2-((3S,4S)-4-{(S)-2-[(biphenyl-3-carbonyl)-amino]-3-methylbutyrylamino}-3-hydroxy-5-phenylpentanoylamino)-3-methylpentanoylamino]-3-methylbutyrate], in test [3], the CAR-induced swelling entry was “exhibited no influence on inflammatory swelling”. Besides, in test [3] (rat, Hargreaves method), the “thermal hyperalgesia (anti-hyperalgesic action)” value is reported as “exerts an anti-hyperalgesic action”. The IC50 in test [2] stood at 1.2e-05 M. For `C[C@]12C=CC(=O)C=C1CC[C@H]1[C@@H]3C[C@@H](O)[C@](O)(C(=O)CO)[C@@]3(C)C[C@H](O)[C@@]12F` [TAC, Triamcinolone, reference compound], the CAR-induced swelling result in test [3] is “capable of reducing the CAR-induced swelling”. Take `CC(C)CC(=O)N[C@H](C(=O)N[C@H](C(=O)N[C@@H](CC(C)C)[C@@H](O)CC(=O)N[C@@H](C)C(=O)N[C@@H](CC(C)C)[C@@H](O)CC(=O)O)C(C)C)C(C)C` [pepstatin] (Isovaleryl-VV[Sta]A[Sta]-OH): in test [4], the “inhibition of autodigestion of the cartilage” value is listed as “inhibited virtually completely”. For `CC(C)c1nc(CN(C)C(=O)N[C@H](C(=O)N[C@@H](Cc2ccccc2)C[C@H](O)[C@H](Cc2ccccc2)NC(=O)OCc2cncs2)C(C)C)cs1` [ritonavir], in test [4], the “inhibition of autodigestion of the cartilage” value is “inhibited virtually completely”.

The term IC50 denotes the concentration at which inhibition is half-maximal.
